Measured values published in US10301291B2, “Imidazole derivative having JNK inhibitory activity and use thereof” (SAMJIN PHARMACEUTICAL CO., LTD., priority 2016, dated 2019).

Molecular target: JNK3 (Homo sapiens (Human), UniProt P53779)
Assay: Measurement of JNK3 enzyme activity (33P-ATP filter-binding)
Assay type: biochemical
Details: human JNK3, ATP 10 μM, ATF2 3 μM
Method: The changes in JNK3 enzyme activity resulting from being treated with the inventive imidazole derivative (Formula 1) shown in a following Table 1 were identified through IC50.
First of all, after a substrate was inserted into a prepared base reaction buffer solution (20 mM Hepes ([…]), 10 mM MgCl2, 1 mM EGTA, 0.02% Brij35, 0.02 mg/ml BSA, 0.1 mM Na3VO4, 2 mM DTT, 1% DMSO), a human JNK3 enzyme was added into a prepared substrate solution and then mixed together. As the substrate, ATP (10 μM) and ATF2 (3 μM) were used, among which the ATP was also used as a common substrate. Then, compounds of Examples 1-18 and 25-36, which were dissolved in 100% DMSO, were inserted into an enzyme reaction solution, and then cultured at room temperature for 20 minutes. Then, ^33P-ATP was inserted into the above reaction mixture solution to initiate a reaction, then cultured at room temperature for 2 hours, and then an enzyme activity was detected by means of a filter-binding method.
Particularly, after each 25 μl of the resulting solution was slowly spotted on P81 paper, it was inserted into a scintillation vial, and washed with 0.75% phosphoric acid four times for 10 minutes each, and with acetone once for 5 minutes. 5 ml of scintillation cocktail was inserted into the above scintillation vial and a resulting signal was read by means of a scintillation counter.
IC50 values of compounds of Examples 1-18 and 25-36 with regard to JNK3 enzyme activity were shown in a following Table 2.

Sequence of JNK3 (P53779 whole entry): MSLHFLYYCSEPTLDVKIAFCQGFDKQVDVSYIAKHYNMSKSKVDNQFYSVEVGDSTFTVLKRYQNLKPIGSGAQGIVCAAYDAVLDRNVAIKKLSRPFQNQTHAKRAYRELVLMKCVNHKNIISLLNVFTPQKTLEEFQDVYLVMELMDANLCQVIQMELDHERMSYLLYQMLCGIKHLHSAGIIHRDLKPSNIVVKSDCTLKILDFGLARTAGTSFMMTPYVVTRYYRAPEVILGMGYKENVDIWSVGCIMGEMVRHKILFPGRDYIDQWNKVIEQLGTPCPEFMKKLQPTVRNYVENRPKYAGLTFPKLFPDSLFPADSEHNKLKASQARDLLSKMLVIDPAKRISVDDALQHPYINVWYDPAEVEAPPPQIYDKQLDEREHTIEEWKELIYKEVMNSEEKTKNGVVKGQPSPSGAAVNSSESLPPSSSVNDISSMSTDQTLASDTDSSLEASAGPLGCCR

SMILES | IC50
N#CCc1cnc(-c2ccc3c(c2)OCO3)n1-c1ccnc(NC2CCOCC2)n1 [Example 1, 2-(2-(benzo[d][1,3]dioxol-5-yl)-1-(2-(tetrahydro-2H-pyran-4-ylamino)pyrimidine-4-yl)-1H-imidazole-5-yl)acetonitrile] | 30 to 100 nM
N#CCc1cnc(-c2ccc3c(c2)OCCO3)n1-c1ccnc(NC2CCOCC2)n1 [Example 2, 2-(2-(2,3-dihydrobenzo[b][1,4]dioxin-6-yl)-1-(2-(tetrahydro-2H-pyran-4-ylamino)pyrimidine-4-yl)-1H-imidazole-5-yl)acetonitrile] | > 100 nM
N#CCc1cnc(-c2ccc3ccccc3n2)n1-c1ccnc(NC2CCOCC2)n1 [Example 3, 2-(2-(quinoline-2-yl)-1-(2-(tetrahydro-2H-pyran-4-ylamino)pyrimidine-4-yl)-1H-imidazole-5-yl) acetonitrile] | 30 to 100 nM
N#CCc1cnc(-c2ccc3ccccc3c2)n1-c1ccnc(NC2CCOCC2)n1 [Example 4, 2-(2-(naphthalene-2-yl)-1-(2-(tetrahydro-2H-pyran-4-ylamino)pyrimidine-4-yl)-1H-imidazole-5-yl)acetonitrile] | < 30 nM
N#CCc1cnc(-c2ccc(Cl)c(Cl)c2)n1-c1ccnc(NC2CCOCC2)n1 [Example 5, 2-(2-(3,4-dichlorophenyl)-1-(2-(tetrahydro-2H-pyran-4-ylamino)pyrimidine-4-yl)-1H-imidazole-5-yl)acetonitrile] | 30 to 100 nM
N#CCc1cnc(-c2ccc(F)c(C(F)(F)F)c2)n1-c1ccnc(NC2CCOCC2)n1 [Example 6, 2-(2-(4-fluoro-3-(trifluoromethyl)phenyl)-1-(2-(tetrahydro-2H-pyran-4-ylamino)pyrimidine-4-yl)-1H-imidazole-5-yl)acetonitrile] | 30 to 100 nM
N#CCc1cnc(-c2ccc3c(c2)OCO3)n1-c1ccnc(NC2CCCCC2)n1 [Example 7, 2-(2-(benzo[d][1,3]dioxol-5-yl)-1-(2-(cyclohexylamino)pyrimidine-4-yl)-1H-imidazole-5-yl)acetonitrile] | > 100 nM
N#CCc1cnc(-c2ccc3c(c2)OCCO3)n1-c1ccnc(NC2CCCCC2)n1 [Example 8, 2-(1-(2-(cyclohexylamino)pyrimidine-4-yl)-2-(2,3-dihydrobenzo[b][1,4]dioxin-6-yl)-1H-imidazole-5-yl)acetonitrile] | > 100 nM
N#CCc1cnc(-c2ccc3ccccc3n2)n1-c1ccnc(NC2CCCCC2)n1 [Example 9, 2-(1-(2-(cyclohexylamino)pyrimidine-4-yl)-2-(quinoline-2-yl)-1H-imidazole-5-yl)acetonitrile] | > 100 nM
N#CCc1cnc(-c2ccc3ccccc3c2)n1-c1ccnc(NC2CCCCC2)n1 [Example 10, 2-(1-(2-(cyclohexylamino)pyrimidine-4-yl)-2-(naphthalene-2-yl)-1H-imidazole-5-yl)acetonitrile] | 30 to 100 nM
N#CCc1cnc(-c2ccc(Cl)c(Cl)c2)n1-c1ccnc(NC2CCCCC2)n1 [Example 11, 2-(1-(2-(cyclohexylamino)pyrimidine-4-yl)-2-(3,4-dichlorophenphenyl)-1H-imidazole-5-yl)acetonitrile] | 30 to 100 nM
N#CCc1cnc(-c2ccc(F)c(C(F)(F)F)c2)n1-c1ccnc(NC2CCCCC2)n1 [Example 12, 2-(1-(2-(cyclohexylamino)pyrimidine-4-yl)-2-(4-fluoro-3-(trifluoromethyl)phenyl)-1H-imidazole-5-yl)acetonitrile] | > 100 nM
CC(O)CNc1nccc(-n2c(CC#N)cnc2-c2ccc3c(c2)OCO3)n1 (stereo not drawn) [Example 13, 2-(2-(benzo[d][1,3]dioxol-5-yl)-1-(2-(2-hydroxypropylamino)pyrimidine-4-yl)-1H-imidazole-5-yl)acetonitrile] | 30 to 100 nM
CC(O)CNc1nccc(-n2c(CC#N)cnc2-c2ccc3c(c2)OCCO3)n1 (stereo not drawn) [Example 14, 2-(2-(2,3-dihydrobenzo[b][1,4]dioxin-6-yl)-1-(2-(2-hydroxypropylamino)pyrimidine-4-yl)-1H-imidazole-5-yl)acetonitrile] | 30 to 100 nM
CC(O)CNc1nccc(-n2c(CC#N)cnc2-c2ccc3ccccc3n2)n1 (stereo not drawn) [Example 15, 2-(1-(2-(2-hydroxypropylamino)pyrimidine-4-yl)-2-(quinoline-2-yl)-1H-imidazole-5-yl)acetonitrile] | 30 to 100 nM
CC(O)CNc1nccc(-n2c(CC#N)cnc2-c2ccc3ccccc3c2)n1 (stereo not drawn) [Example 16, 2-(1-(2-(2-hydroxypropylamino)pyrimidine-4-yl)-2-(naphthalene-2-yl)-1H-imidazole-5-yl)acetonitrile] | 30 to 100 nM
CC(O)CNc1nccc(-n2c(CC#N)cnc2-c2ccc(Cl)c(Cl)c2)n1 (stereo not drawn) [Example 17, 2-(2-(3,4-dichlorophenyl)-1-(2-(2-hydroxypropylamino)pyrimidine-4-yl)-1H-imidazole-5-yl)acetonitrile] | 30 to 100 nM
CC(O)CNc1nccc(-n2c(CC#N)cnc2-c2ccc(F)c(C(F)(F)F)c2)n1 (stereo not drawn) [Example 18, 2-(2-(4-fluoro-3-(trifluoromethyl)phenyl)-1-(2-(2-hydroxypropylamino)pyrimidine-4-yl)-1H-imidazole-5-yl)acetonitrile] | 30 to 100 nM
N#CCc1cnc(-c2ccc3c(c2)OCO3)n1-c1ccnc(NC2CCCNC2)n1 (stereo not drawn) [Example 25, 2-(2-(benzo[d][1,3]dioxol-5-yl)-1-(2-(piperidine-3-ylamino)pyrimidine-4-yl)-1H-imidazole-5-yl) acetonitrile] | > 100 nM
N#CCc1cnc(-c2ccc3c(c2)OCCO3)n1-c1ccnc(NC2CCCNC2)n1 (stereo not drawn) [Example 26, 2-(2-(2,3-dihydrobenzo[b][1,4]dioxin-6-yl)-1-(2-(piperidine-3-ylamino)pyrimidine-4-yl)-1H-imidazole-5-yl)acetonitrile] | 30 to 100 nM
N#CCc1cnc(-c2ccc3ccccc3n2)n1-c1ccnc(NC2CCCNC2)n1 (stereo not drawn) [Example 27, 2-(1-(2-(piperidine-3-ylamino)pyrimidine-4-yl)-2-(quinoline-2-yl)-1H-imidazole-5-yl)acetonitrile] | 30 to 100 nM
N#CCc1cnc(-c2ccc3ccccc3c2)n1-c1ccnc(NC2CCCNC2)n1 (stereo not drawn) [Example 28, 2-(2-(naphthalene-2-yl)-1-(2-(piperidine-3-ylamino)pyrimidine-4-yl)-1H-imidazole-5-yl)acetonitrile] | < 30 nM
N#CCc1cnc(-c2ccc(Cl)c(Cl)c2)n1-c1ccnc(NC2CCCNC2)n1 (stereo not drawn) [Example 29, 2-(2-(3,4-dichlorophenyl)-1-(2-(piperidine-3-ylamino)pyrimidine-4-yl)-1H-imidazole-5-yl)acetonitrile] | 30 to 100 nM
N#CCc1cnc(-c2ccc(F)c(C(F)(F)F)c2)n1-c1ccnc(NC2CCCNC2)n1 (stereo not drawn) [Example 30, 2-(2-(4-fluoro-3-(trifluoromethyl)phenyl)-1-(2-(piperidine-3-ylamino)pyrimidine-4-yl)-1H-imidazole-5-yl)acetonitrile] | 30 to 100 nM
N#CCc1cnc(-c2ccc3c(c2)OCO3)n1-c1ccnc(NC2CCCN(C(=O)C3CC3)C2)n1 (stereo not drawn) [Example 31, 2-(2-(benzo[d][1,3]dioxol-5-yl)-1-(2-(1-(cyclopropanecarbonyl)piperidine-3-ylamino)pyrimidine-4-yl)-1H-imidazole-5-yl)acetonitrile] | 30 to 100 nM
N#CCc1cnc(-c2ccc3c(c2)OCCO3)n1-c1ccnc(NC2CCCN(C(=O)C3CC3)C2)n1 (stereo not drawn) [Example 32, 2-(1-(2-(1-(cyclopropanecarbonyl)piperidine-3-ylamino)pyrimidine-4-yl)-2-(2,3-dihydrobenzo[b][1,4]dioxin-6-yl)-1H-imidazole-5-yl)acetonitrile] | 30 to 100 nM
N#CCc1cnc(-c2ccc3ccccc3n2)n1-c1ccnc(NC2CCCN(C(=O)C3CC3)C2)n1 (stereo not drawn) [Example 33, 2-(1-(2-(1-(cyclopropanecarbonyl)piperidine-3-ylamino)pyrimidine-4-yl)-2-(quinoline-2-yl)-1H-imidazole-5-yl)acetonitrile] | < 30 nM
N#CCc1cnc(-c2ccc(Cl)c(Cl)c2)n1-c1ccnc(NC2CCCN(C(=O)C3CC3)C2)n1 (stereo not drawn) [Example 35, 2-(1-(2-(1-(cyclopropanecarbonyl)piperidine-3-ylamino)pyrimidine-4-yl)-2-(3,4-dichlorophenyl)-1H-imidazole-5-yl)acetonitrile] | 30 to 100 nM
N#CCc1cnc(-c2ccc(F)c(C(F)(F)F)c2)n1-c1ccnc(NC2CCCN(C(=O)C3CC3)C2)n1 (stereo not drawn) [Example 36, 2-(1-(2-(1-(cyclopropanecarbonyl)piperidine-3-ylamino)pyrimidine-4-yl)-2-(4-fluoro-3-(trifluoromethyl)phenyl)-1H-imidazole-5-yl)acetonitrile] | 30 to 100 nM
N#CCc1cnc(-c2ccc3occc3c2)n1-c1ccnc(NC2CCCN(C(=O)C3CC3)C2)n1 (stereo not drawn) [Example 37] | < 30 nM
